The target in data set [1] is DNA-PK (Homo sapiens (Human), UniProt P78527). Put plainly: DNA-PK assay (biochemical), flashplate 33P-ATP kinase assay. In short, it runs like this:
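Reactions ran in streptavidin-coated flashplates and were halted by 200 mM EDTA, with a further 30 min at room temperature before saline washing.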

Data set [2] has as its target Kv11.1 (hERG) (Homo sapiens (Human), UniProt Q12809). Put plainly: Kv11.1 (hERG) ion channel activity (patch clamp assay), HEK293 cells transfected with hERG gene. On the technique in general: The hERG channel carries a current that helps repolarise heart muscle cells.
Data set [3] deals with DNA-PK phosphorylation at serine 2056 (Homo sapiens (Human), UniProt P78527). Nature of the data set: DNA-PK phosphorylation at serine 2056 (cellular), bleomycin-treated HCT116 cells, ELISA. It is filed as cell-based. Particulars: read-out: IC50 pDNA-PK. A digest of the protocol:
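HCT116, MEM alpha + 10% FCS, 37 °C/10% CO2, seeded o/n. Cpd + 10 μM bleomycin, 6 h. ELISA, chemiluminescence; phospho/total DNA-PKcs ratio, DMSO = blank.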
In general terms: In an ELISA, binding on a coated surface is turned into a signal by an enzyme label.

Setting [4] is: cellular DNA-PK phosphorylation at serine 2056, HCT116.
[5] abbreviates: read-out: Ki [Kv1.11 hERG], hERG patch clamp assay (cells without asterisk).
[6] abbreviates: human, HEK293 cells stably transfected with the hERG gene, Ki [Kv1.11 hERG], hERG patch clamp assay (cells without asterisk).
The mark [7] stands for this setting: Ki [Kv1.11 hERG], patch clamp, HEK293 transfected with hERG gene.
The mark [8] stands for this setting: cellular, HCT116 cells, 10 μM bleomycin, six hours.
Setting [9] is: read-out: Ki [Kv1.11 hERG], patch clamp, HEK293 transfected with hERG gene.

Where two headings read alike, the source gives them in different places. Bounds are passed on as bounds.

The values that follow come from patent US9732094B2, “Arylquinazolines” (Merck Patent GmbH, priority 2013, dated 2017).

In general, IC50 refers to the concentration needed to halve the response being measured. The term Ki denotes a dissociation constant, usually derived from enzyme kinetics or from competition with a known ligand.

Sequence of Kv11.1 (hERG) (Q12809 whole entry): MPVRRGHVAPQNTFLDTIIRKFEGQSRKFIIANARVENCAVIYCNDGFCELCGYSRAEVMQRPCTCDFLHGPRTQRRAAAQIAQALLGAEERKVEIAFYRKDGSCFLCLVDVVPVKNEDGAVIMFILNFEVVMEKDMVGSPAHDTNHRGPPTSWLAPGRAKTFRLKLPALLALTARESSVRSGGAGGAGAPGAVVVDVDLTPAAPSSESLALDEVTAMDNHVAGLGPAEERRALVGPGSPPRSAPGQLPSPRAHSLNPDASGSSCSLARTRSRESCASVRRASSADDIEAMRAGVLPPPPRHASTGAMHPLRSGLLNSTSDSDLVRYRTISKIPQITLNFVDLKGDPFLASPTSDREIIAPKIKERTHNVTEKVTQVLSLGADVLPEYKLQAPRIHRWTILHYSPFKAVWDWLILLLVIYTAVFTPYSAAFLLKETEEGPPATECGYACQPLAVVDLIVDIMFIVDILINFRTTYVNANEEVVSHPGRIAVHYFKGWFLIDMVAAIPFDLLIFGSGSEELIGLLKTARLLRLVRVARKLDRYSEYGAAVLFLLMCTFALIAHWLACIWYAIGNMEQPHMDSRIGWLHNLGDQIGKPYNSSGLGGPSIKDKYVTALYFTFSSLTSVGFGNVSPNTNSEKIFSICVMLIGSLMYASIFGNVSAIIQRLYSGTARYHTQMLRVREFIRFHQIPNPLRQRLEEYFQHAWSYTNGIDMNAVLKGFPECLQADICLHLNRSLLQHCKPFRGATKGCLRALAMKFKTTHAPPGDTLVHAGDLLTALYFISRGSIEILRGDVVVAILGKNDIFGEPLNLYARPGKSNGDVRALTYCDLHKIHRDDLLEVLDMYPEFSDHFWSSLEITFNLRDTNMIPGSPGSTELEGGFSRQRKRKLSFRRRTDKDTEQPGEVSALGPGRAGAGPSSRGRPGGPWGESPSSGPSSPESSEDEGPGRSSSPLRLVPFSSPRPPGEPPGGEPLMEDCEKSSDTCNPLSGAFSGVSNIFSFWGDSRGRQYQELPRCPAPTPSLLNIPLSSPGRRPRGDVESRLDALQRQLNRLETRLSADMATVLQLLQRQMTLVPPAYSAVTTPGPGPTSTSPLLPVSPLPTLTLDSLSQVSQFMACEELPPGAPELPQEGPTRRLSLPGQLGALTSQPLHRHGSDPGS

On to `Cn1c(C(O)c2cc(-c3ncnc4cc(N5CCOCC5)ccc34)ccc2Cl)cccc1=O` (single isomer, unassigned) [Example 363, 6-{[2-Chloro-5-(7-morpholin-4-yl-quinazolin-4-yl)-phenyl]hydroxy-methyl}-1-methyl-1H-pyridin-2-one], for which the IC50 in data set [1] (biochemical DNA-PK assay) was in the range of 7 to 30 nM; in data set [3] (setting [4]), 5000 to 10000 nM. In data set [2] (Ki [Kv1.11 hERG], hERG patch clamp assay (cells without asterisk)), the Ki was 15000 to 25000 nM.

`Cn1c(C(O)c2cc(-c3ncnc4cc(N5CCOCC5)ccc34)ccc2Cl)cccc1=O` (single isomer, unassigned) [Example 364, 6-{[2-Chloro-5-(7-morpholin-4-yl-quinazolin-4-yl)-phenyl]hydroxy-methyl}-1-methyl-1H-pyridin-2-one]: the 50% inhibitory concentration (IC50) in data set [1] (biochemical DNA-PK assay) was less than 3 nM; in data set [3] (setting [4]) it was less than 500 nM. The Ki in data set [2] (setting [5]) was greater than 25000 nM.

With `OC(c1cc(-c2ncnc3cc(N4CCOCC4)ccc23)c(F)cc1Cl)c1nccn2ccnc12` (single isomer, unassigned) [Example 395, [2-Chloro-4-fluoro-5-(7-morpholin-4-yl-quinazolin-4-yl)-phenyl)imidazo-[1,2-a]pyrazin-8-yl-methanol], the IC50 in data set [1] (biochemical DNA-PK assay) is 7 to 30 nM; in data set [3] (setting [4]) it was 5000 to 10000 nM. Also, the Ki in data set [2] (setting [6]) was 15000 to 25000 nM.

As to `OC(c1cc(-c2ncnc3cc(N4CCOCC4)ccc23)c(F)cc1Cl)c1nccn2ccnc12` (single isomer, unassigned) [Example 396], the IC50 is 3 to 7 nM in data set [1] (biochemical DNA-PK assay) and less than 500 nM in data set [3] (setting [4]). In data set [2] (setting [5]), the Ki was greater than 25000 nM.

In the case of `OC(c1cccnn1)c1cc(-c2ncnc3cc(N4CCOCC4)ccc23)ccc1Cl` (single isomer, unassigned) [Example 469, [2-Chloro-5-(7-morpholin-4-yl-quinazolin-4-yl)-phenyl]pyridazin-3-yl-methanol], the results for the IC50 in data set [1] (biochemical DNA-PK assay) and in data set [3] (setting [4]) were greater than 30 nM and 10000 to 30000 nM, respectively. Further, the Ki in data set [2] (setting [6]) lay within 10000 to 15000 nM.

Regarding `OC(c1cccnn1)c1cc(-c2ncnc3cc(N4CCOCC4)ccc23)ccc1Cl` (single isomer, unassigned) [Example 470, [2-Chloro-5-(7-morpholin-4-yl-quinazolin-4-yl)-phenyl]pyridazin-3-yl-methanol], the IC50 in data set [1] (biochemical DNA-PK assay) was 3 to 7 nM; in data set [3] (setting [4]), less than 500 nM. In data set [2] (setting [5]), the Ki is greater than 25000 nM.

On to `OC(c1ccc(F)c(-c2ncnc3cc(N4CCOCC4)ccc23)c1)c1c(F)cncc1F` (stereo not drawn) [Example 1, (3,5-Difluoropyridin-4-yl)-[4-fluoro-3-(7-morpholin-4-ylquinazolin-4-yl)phenyl]methanol], for which the half-maximal inhibitory concentration (IC50) in data set [1] (enzymatic, 5 μM ATP) fell in the range of 3 to 7 nM; in data set [3] (setting [8]) it was 500 to 5000 nM. For the same molecule, in data set [2] (setting [7]), the Ki was 15000 to 25000 nM.

Turning to `OC(c1ccc(F)c(-c2ncnc3cc(N4CCOCC4)ccc23)c1)c1cncc(F)c1Cl` (stereo not drawn) [Example 2, (4-Chloro-5-fluoropyridin-3-yl)-[4-fluoro-3-(7-morpholin-4-ylquinazolin-4-yl)phenyl]methanol], the 50% inhibitory concentration (IC50) in data set [1] (enzymatic, 5 μM ATP) is 3 to 7 nM; in data set [3] (setting [8]), less than 500 nM. In data set [2] (setting [7]), this molecule registered a Ki of 10000 to 15000 nM.

In the case of `COc1ccnnc1C(O)c1cc(-c2ncnc3cc(N4CCOCC4)ccc23)c(F)cc1Cl` (stereo not drawn) [Example 3, [2-Chloro-4-fluoro-5-(7-morpholin-4-yl-quinazolin-4-yl)phenyl]-(4-methoxy-pyridazin-3-yl)methanol], the IC50 in data set [1] (enzymatic, 5 μM ATP) fell in the range of 3 to 7 nM; in data set [3] (setting [8]), 500 to 5000 nM. The Ki in data set [2] (setting [9]) is greater than 25000 nM.

On to `O=c1[nH]ccnc1C(O)c1ccc(F)c(-c2ncnc3cc(N4CCOCC4)ccc23)c1` (stereo not drawn) [Example 5, 3-{[4-Fluoro-3-(7-morpholin-4-yl-quinazolin-4-yl)phenyl]-hydroxymethyl]-1H-pyrazin-2-one], for which the IC50 in data set [1] (enzymatic, 5 μM ATP) was greater than 30 nM; in data set [3] (setting [8]), 10000 to 30000 nM. The molecule further had a Ki in data set [2] (setting [7]) of 15000 to 25000 nM.

As to `COc1cc(C(O)c2ccc(F)c(-c3ncnc4cc(N5CCOCC5)ccc34)c2)c(Cl)nn1` (stereo not drawn) [Example 7, (3-Chloro-6-methoxy-pyridazin-4-yl)-[4-fluoro-3-(7-morpholin-4-yl-quinazolin-4-yl)phenyl]-methanol], the IC50 was 3 to 7 nM in data set [1] (enzymatic, 5 μM ATP) and less than 500 nM in data set [3] (setting [8]). The Ki in data set [2] (setting [7]) was 15000 to 25000 nM.

For the molecule `COc1cc(Cl)nnc1C(O)c1cc(-c2ncnc3cc(N4CCOCC4)ccc23)c(F)cc1Cl` (stereo not drawn) [Example 8, [2-Chloro-4-fluoro-5-(7-morpholin-4-yl-quinazolin-4-yl)phenyl]-(6-chloro-4-methoxy-pyridazin-3-yl)methanol], the IC50 in data set [1] (enzymatic, 5 μM ATP) fell in the range of 7 to 30 nM; in data set [3] (setting [8]) it was 500 to 5000 nM. The same molecule showed an inhibition constant Ki in data set [2] (setting [7]) of 10000 to 15000 nM.

As to `COc1cc(Cl)nnc1C(O)c1ccc(F)c(-c2ncnc3cc(N4CCOCC4)ccc23)c1` (stereo not drawn) [Example 10, (6-Chloro-4-methoxy-pyridazin-3-yl)-[4-fluoro-3-(7-morpholin-4-yl-quinazolin-4-yl)phenyl]-methanol], the IC50 is 3 to 7 nM in data set [1] (enzymatic, 5 μM ATP) and less than 500 nM in data set [3] (setting [8]). For the same molecule, in data set [2] (setting [9]), the inhibition constant Ki was greater than 25000 nM.

In the case of `CC(C)(C)Oc1nccnc1C(O)c1ccc(F)c(-c2ncnc3cc(N4CCOCC4)ccc23)c1` (stereo not drawn) [Example 13, (3-tert-Butoxy-pyrazin-2-yl)-[4-fluoro-3-(7-morpholin-4-yl-quinazolin-4-yl)phenyl]-methanol], the IC50 was greater than 30 nM in data set [1] (enzymatic, 5 μM ATP) and 10000 to 30000 nM in data set [3] (setting [8]). Moreover, in data set [2] (setting [7]), the Ki fell in the range of 10000 to 15000 nM.

`OC(c1ccc(F)c(-c2ncnc3cc(N4CCOCC4)ccc23)c1)c1nccnc1N1CCCC1` (stereo not drawn) [Example 14, [4-Fluoro-3-(7-morpholin-4-yl-quinazolin-4-yl)phenyl]-(3-pyrrolidin-1-yl-pyrazin-2-yl)methanol]: the IC50 in data set [1] (enzymatic, 5 μM ATP) lay within 3 to 7 nM; in data set [3] (setting [8]), 500 to 5000 nM. The Ki in data set [2] (setting [9]) is greater than 25000 nM.

With `COc1nccnc1C(O)c1ccc(F)c(-c2ncnc3cc(N4CCOCC4)ccc23)c1` (stereo not drawn) [Example 15, [4-Fluoro-3-(7-morpholin-4-yl-quinazolin-4-yl)phenyl]-(3-methoxy-pyrazin-2-yl)methanol], the IC50 was less than 3 nM in data set [1] (enzymatic, 5 μM ATP) and less than 500 nM in data set [3] (setting [8]). In data set [2] (setting [7]), this molecule came in with a Ki of 15000 to 25000 nM.

As for `COc1nccnc1C(O)c1ccc(F)c(-c2ncnc3cc(N4CCOCC4)ccc23)c1` (stereo not drawn) [Example 16, [4-Fluoro-3-(7-morpholin-4-yl-quinazolin-4-yl)phenyl]-(3-methoxy-pyrazin-2-yl)methanol], the IC50 was 7 to 30 nM in data set [1] (enzymatic, 5 μM ATP) and 500 to 5000 nM in data set [3] (setting [8]). Further, the Ki in data set [2] (setting [9]) is greater than 25000 nM.

As for `OC(c1ccc(F)c(-c2ncnc3cc(N4CCOCC4)ccc23)c1)c1c(Cl)cncc1Cl` (stereo not drawn) [Example 17, (3,5-Dichloro-pyridin-4-yl)-[4-Fluoro-3-(7-morpholin-4-yl-quinazolin-4-yl)phenyl]-methanol], the IC50 was 3 to 7 nM in data set [1] (enzymatic, 5 μM ATP) and 500 to 5000 nM in data set [3] (setting [8]). The Ki in data set [2] (setting [7]) was in the range of 10000 to 15000 nM.

On to `COc1ccnnc1C(O)c1ccc(F)c(-c2ncnc3cc(N4CCOCC4)ccc23)c1` (stereo not drawn) [Example 18, [4-Fluoro-3-(7-morpholin-4-yl-quinazolin-4-yl)phenyl]-(4-methoxy-pyridazin-3-yl)methanol], for which the IC50 is less than 3 nM in data set [1] (enzymatic, 5 μM ATP) and 500 to 5000 nM in data set [3] (setting [8]). In data set [2] (setting [7]), this molecule returned a Ki of 15000 to 25000 nM.

`COc1cnc(Cl)c(C(O)c2ccc(F)c(-c3ncnc4cc(N5CCOCC5)ccc34)c2)c1` (stereo not drawn) [Example 22, (2-Chloro-5-methoxy-pyridin-3-yl)-[4-fluoro-3-(7-morpholin-4-yl-quinazolin-4-yl)phenyl]-methanol]: the IC50 in data set [1] (enzymatic, 5 μM ATP) is less than 3 nM; in data set [3] (setting [8]), less than 500 nM. For the same molecule, in data set [2] (setting [9]), the Ki was less than 10000 nM.

On to `COc1ncc(Cl)nc1C(O)c1ccc(F)c(-c2ncnc3cc(N4CCOCC4)ccc23)c1` (stereo not drawn) [Example 25, (6-Chloro-3-methoxy-pyrazin-2-yl)-[4-fluoro-3-(7-morpholin-4-yl-quinazolin-4-yl)phenyl]-methanol], for which the IC50 in data set [1] (enzymatic, 5 μM ATP) was 3 to 7 nM; in data set [3] (setting [8]), less than 500 nM. The Ki in data set [2] (setting [9]) is less than 10000 nM.

`COc1cnc(Cl)c(C(O)c2ccc(F)c(-c3ncnc4cc(N5CCOCC5)ccc34)c2)n1` (stereo not drawn) [Example 26, (3-Chloro-6-methoxy-pyrazin-2-yl)-[4-fluoro-3-(7-morpholin-4-yl-quinazolin-4-yl)phenyl]-methanol]: the IC50 in data set [1] (enzymatic, 5 μM ATP) is less than 3 nM; in data set [3] (setting [8]) it was less than 500 nM. Besides, in data set [2] (setting [9]), the Ki was greater than 25000 nM.

Turning to `O[C@H](c1ccc(F)c(-c2ncnc3cc(N4CCOCC4)ccc23)c1)c1nccnc1Cl` [Example 27, (R)-(3-Chloro-pyrazin-2-yl)-[4-fluoro-3-(7-morpholin-4-yl-quinazolin-4-yl)phenyl]-methanol], the IC50 is less than 3 nM in data set [1] (enzymatic, 5 μM ATP) and less than 500 nM in data set [3] (setting [8]). For the same molecule, the Ki in data set [2] (setting [9]) was greater than 25000 nM.

Regarding `O[C@@H](c1ccc(F)c(-c2ncnc3cc(N4CCOCC4)ccc23)c1)c1nccnc1Cl` [Example 28, (S)-(3-Chloro-pyrazin-2-yl)-[4-fluoro-3-(7-morpholin-4-yl-quinazolin-4-yl)phenyl]-methanol], the IC50 was in the range of 7 to 30 nM in data set [1] (enzymatic, 5 μM ATP) and 5000 to 10000 nM in data set [3] (setting [8]). In data set [2] (setting [7]), this molecule gave a Ki of 15000 to 25000 nM.

With `COc1cnc(C(O)c2ccc(F)c(-c3ncnc4cc(N5CCOCC5)ccc34)c2)c(Cl)c1` (stereo not drawn) [Example 31, (3-Chloro-5-methoxy-pyridin-2-yl)-[4-fluoro-3-(7-morpholin-4-yl-quinazolin-4-yl)phenyl]-methanol], the IC50 in data set [1] (enzymatic, 5 μM ATP) was less than 3 nM; in data set [3] (setting [8]) it was less than 500 nM. Moreover, in data set [2] (setting [7]), the Ki lay in the range of 10000 to 15000 nM.
